Values quoted from earlier work as cited in PMC11956011, “An Amazing 30-Year Journey around the DABO Family: A Medicinal Chemistry Lesson on a Versatile Class of Non-nucleoside HIV-1 Reverse Transcriptase Inhibitors” (Journal of Medicinal Chemistry, 2025).
Where two headings read alike, the source gives them in different places.

Key:
[1] = tested on: mock-infected cells
[2] = tested on: HIV-1 RT (WT, recombinant); conditions: for IC50: read-out: IC50 (HIV-1 RT)
[3] = tested on: HIV-1
[4] = tested on: HIV-1 NL4-3 wt; conditions: read-out: EC50: NL4-3 wt
[5] = tested on: K103N HIV-1 mutant strain
[6] = tested on: Y188L HIV-1 mutant strain
[7] = tested on: Y181C HIV-1 mutant strain; conditions: Fig 5
[8] = tested on: L100I HIV-1 RT; conditions: Fig 5
[9] = tested on: IRLL98 clinical isolate (K101Q, Y181C, G190A); conditions: Fig 9
[10] = tested on: Y181I HIV-1 RT; conditions: Fig 9

In the case of “2-(cyclopentylthio)-6-[(1R)-1-(2,6-difluorophenyl)ethyl]-5-methyl-4(3H)-pyrimidinone [[+]-38]”, the CC50 ([1]; Fig 5) is listed as over 200000 nM, the IC50 ([2]; Fig 5, printed without unit) is listed as 8 nM and the EC50 [3] is listed as 2 nM. The SI [3] was over 100000.
For `CCOCn1c(Cc2ccccc2)c(C(C)C)c(=O)[nH]c1=O` [Emivirine, reference compound], the CC50 [1] is given as 186000 nM, the EC50 ([3]; Fig 4) is given as 4.2 nM and the SI ([3]; Fig 4) is given as 44000.
In the case of `Cc1cccc(Cc2cc(=O)[nH]c(OC3CCCCC3)n2)c1` [compound 6], the SI ([3]; CC50/EC50, Fig 3) is given as over 400.
For `CCC(C)Oc1nc(Cc2cc(C)cc(C)c2)c(C)c(=O)[nH]1` (centres unmarked) [compound 7], the SI ([3]; CC50/EC50, Fig 3) is listed as over 400.
In the case of `Nc1cc(Cl)nc(Sc2ccccc2)n1` [compound 20], the EC50 ([3]; Fig 4) is listed as 90000 nM and the SI ([3]; Fig 4) is listed as 2.3.
In the case of `CCC(C)Oc1nc(N)cc(S(=O)(=O)c2cccc(C)c2)n1` (centres unmarked) [compound 22], the CC50 ([1]; Fig 4) is given as over 200000 nM and the SI ([3]; Fig 4) is given as over 43.
For `CCOC1CSc2nc(=O)c(CC)c(Cc3cc(C)cc(C)c3)n21` (centres unmarked) [compound 24], the CD50 ([1]; Fig 4) is listed as over 100 µM, the SI ([3]; CD50/ED50, Fig 4) is listed as over 140 and the ED50 ([3]; Fig 4) is listed as 700 nM.
In the case of `Nc1nc2c(c(=O)[nH]1)CCC2c1ccccc1` (centres unmarked) [compound 27, 2-amino-7-phenyl-6,7-dihydro-5H-cyclopenta[d]-4(3H)-pyrimidinone], the “anti-HIV-1 activity (in words)” value [3] is listed as “lacked anti-HIV-1 activity”.
For `CCC(C)Sc1nc(O)cc(Cc2c(Cl)cccc2Cl)n1` (centres unmarked) [compound 28], the CC50 ([1]; Fig 5) is listed as over 200000 nM, the IC50 ([2]; Fig 5) is listed as 100 nM and the SI ([3]; Fig 5) is listed as over 1428.
For `CCC(C)Sc1nc(O)c(C)c(Cc2c(Cl)cccc2Cl)n1` (centres unmarked) [compound 29], the CC50 ([1]; Fig 5) is listed as over 200000 nM, the IC50 ([2]; Fig 5) is listed as 60 nM and the SI ([3]; Fig 5) is listed as over 4000.
In the case of `CCC(C)Sc1nc(O)cc(Cc2c(F)cccc2F)n1` (centres unmarked) [compound 31], the CC50 ([1]; Fig 5) is given as over 200000 nM, the IC50 ([2]; Fig 5) is given as 50 nM and the SI ([3]; Fig 5) is given as over 5000.
In the case of `CCC(C)Sc1nc(O)cc(C(C)c2c(F)cccc2F)n1` (centres unmarked) [compound 34], the CC50 ([1]; Fig 5) is listed as over 200000 nM, the SI ([3]; Fig 5) is listed as over 6666 and the EC50 ([3]; Fig 5, MT-4 cells) is listed as 30 nM.
For `CCCCSc1nc(O)c(C)c(C(C)c2c(F)cccc2F)n1` (centres unmarked) [compound 37], the EC50 ([3]; Fig 5, MT-4 cells) is given as 8 nM.
In the case of `CCCCSc1nc(C(C)c2c(F)cccc2Cl)cc(=O)[nH]1` (centres unmarked) [compound 39], the EC50 ([4]; Fig 5) is listed as 0.3 nM, the CC50 ([1]; Fig 5) is listed as over 73000 nM and the EC50 ([5]; Fig 5) is listed as 1100 nM. The “ID50: WT” value ([2]; Fig 5) was 10 nM, the EC50 ([6]; Fig 5) was 5600 nM and the EC50 [7] was 3900 nM. For the same compound, the “ID50: L100I” value [8] was 600 nM.
For `CC(c1cc(=O)[nH]c(SC2CCCC2)n1)c1c(F)cccc1Cl` (centres unmarked) [compound 40], the EC50 ([4]; Fig 5) is given as 0.3 nM, the CC50 ([1]; Fig 5) is given as over 71000 nM and the EC50 ([5]; Fig 5) is given as 900 nM. For the same compound, the “ID50: WT” value ([2]; Fig 5) was 15 nM, the EC50 ([6]; Fig 5) was over 71000 nM and the EC50 [7] was 3000 nM. The “ID50: L100I” value [8] was 1100 nM.
For `Cc1c(C(C)c2c(F)cccc2Cl)nc(SC(C)C)[nH]c1=O` (centres unmarked) [compound 41], the CC50 ([1]; Fig 5) is given as over 15000 nM, the EC50 ([5]; Fig 5) is given as 140 nM and the EC50 ([6]; Fig 5) is given as 3400 nM. The EC50 [7] was 250 nM.
In the case of `CCCSc1nc(C(C)c2c(F)cccc2Cl)c(C)c(=O)[nH]1` (centres unmarked) [compound 42], the EC50 ([4]; Fig 5) is listed as 0.05 nM, the CC50 ([1]; Fig 5) is listed as over 1500 nM and the EC50 ([5]; Fig 5) is listed as 350 nM. The “ID50: WT” value ([2]; Fig 5) was 0.9 nM, the EC50 ([6]; Fig 5) was over 1500 nM and the EC50 [7] was 260 nM. The “ID50: L100I” value [8] was 90 nM.
For `Cc1c(C(C)c2c(F)cccc2Cl)nc(SC2CCCC2)[nH]c1=O` (centres unmarked) [compound 43], the EC50 ([4]; Fig 5) is listed as 0.03 nM, the CC50 ([1]; Fig 5) is listed as over 15000 nM and the EC50 ([5]; Fig 5) is listed as 93 nM. The “ID50: WT” value ([2]; Fig 5) was 11 nM, the EC50 ([6]; Fig 5) was 2900 nM and the EC50 [7] was 230 nM. The “ID50: L100I” value [8] was 120 nM.
For `Cc1cc(=O)[nH]c(SCCN2C(=O)c3ccccc3C2=O)n1` [compound 74], the SI ([3]; Fig 9) is listed as 61.6.
For `O=C1c2ccccc2C(=O)N1CCSc1nc(Cc2c(F)cccc2F)cc(=O)[nH]1` [compound 75], the CC50 ([1]; Fig 9) is listed as over 100000 nM, the EC50 ([3]; Fig 9) is listed as 17000 nM and the SI ([3]; Fig 9) is listed as over 5.9.
For `COc1ccc(CSc2nc(Cc3c(Cl)cccc3Cl)c(C)c(=O)[nH]2)cc1` [compound 76], the EC50 ([4]; Fig 9) is given as 7 nM, the CC50 ([1]; Fig 9) is given as 32000 nM and the EC50 ([5]; Fig 9) is given as 4700 nM. The “ID50: WT” value ([2]; Fig 9) was 4 nM, the EC50 ([6]; Fig 9) was over 32000 nM and the EC50 [9] was 47 nM. The “ID50: Y181I” value [10] was 150000 nM.
In the case of `COc1ccc(CCSc2nc(Cc3c(Cl)cccc3Cl)c(C)c(=O)[nH]2)cc1` [compound 77], the EC50 ([4]; Fig 9) is given as under 0.14 nM, the CC50 ([1]; Fig 9) is given as over 57000 nM and the EC50 ([5]; Fig 9) is given as 870 nM. For the same compound, the “ID50: WT” value ([2]; Fig 9) was 26 nM, the EC50 ([6]; Fig 9) was 6900 nM and the EC50 [9] was 0.22 nM. For the same compound, the “ID50: Y181I” value [10] was 1500 nM.
